From patent publication US20170240522A1, “BENZOTHIOPHENE, BENZYLOXYBENZYLIDENE AND INDOLINE DERIVATIVES USEFUL FOR THE TREATMENT OF TUBERCULOSIS” (priority 2014, published 2017) come the findings set out here.

Assay [1] addresses T1, MprB (Mycobacterium tuberculosis, UniProt P9WGL1).
T1 construct: MprB lacking its N-terminal transmembrane domain was incubated with [γ-32P]ATP; His6; made in house; host or cells: E. coli BL21 (DE3), vector pQE80L
T1 sequence (P9WGL1 185-504 limits assumed): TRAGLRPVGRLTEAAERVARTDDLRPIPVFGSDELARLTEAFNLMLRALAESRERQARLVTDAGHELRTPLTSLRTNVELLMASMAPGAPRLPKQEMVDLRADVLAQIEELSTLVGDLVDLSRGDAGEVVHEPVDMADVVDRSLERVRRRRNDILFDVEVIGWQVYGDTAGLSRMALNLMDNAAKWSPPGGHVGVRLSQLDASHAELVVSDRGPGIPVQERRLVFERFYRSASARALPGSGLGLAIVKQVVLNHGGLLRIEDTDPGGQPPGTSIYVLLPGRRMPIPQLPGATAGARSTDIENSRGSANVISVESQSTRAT
As to the kind of experiment: MprB autophosphorylation assay. The class given is biochemical.

The test system of assay [2] is MRC-5 lung fibroblasts. As to the kind of experiment: Fibroblast survival assay (FSA). The class given is cell-based. The note with it: Homo sapiens, MRC5; read-out: IC50 of protection of fibroblasts.
Assay [3] deals with Mtb-Erdman. As to the kind of experiment: Growth of Mtb in 7H9 broth. The class given is cell-based, Mycobacterium tuberculosis. The note with it: 25 μM.
The subject of assay [4] is several other mycobacteria and non-mycobacterial pathogens. As to the kind of experiment: REMA assay of non-Mtb strains. The class given is cell-based.
Assay [5] concerns Mtb expressing GFP in infected fibroblasts. The class given is cell-based, Mycobacterium tuberculosis. The following applies: compound concentration 5 μM (FIG. 2D).
For assay [6], the system named is EsxA. The class given is cell-based, Mycobacterium tuberculosis.
The subject of assay [7] is Ag85 complex proteins. The class given is cell-based, Mycobacterium tuberculosis.
The test system of assay [8] is Mtb transcriptome. As to the kind of experiment: RNA-seq and qRT-PCR of compound-treated Mtb. The class given is cell-based, Mycobacterium tuberculosis. The procedure:
For the transcriptomic studies, bacteria were grown under the same conditions as for protein secretion assays. Drug exposure time was 8 hours with 5 μM of compound for RNA-seq experiments and confirmatory qRT-PCR. RNA was extracted with Trizol (Invitrogen) and treated with DNase I (Roche) prior to library preparation or generation of the cDNA template. cDNA was synthesized using the RevertAid First Strand cDNA Synthesis Kit (Fermentas) using random hexamer primer. cDNA corresponding to 10 ng of input RNA was used in each RT-PCR reaction supplemented with specific primer pairs (200 nM each) listed in Table S4 and SYBR-Green master mix (Applied Biosystems). Quantitative RT-PCR reactions were performed with the 7900HT Fast Real-Time PCR System (Applied Biosystems) with the following parameters: 50° C. for 2 min, 95° C. for 10 min, followed by 40 cycles of 95° C. for 15 s and 60° C. for 60 s. Melt curve analysis was used to confirm specific amplification for each primer pair. Unpaired Student's T-tests were used for statistical analyses.
For the RNA-seq library preparation 100 ng of total RNA were used in the TruSeq Stranded mRNA LT kit, according to the instructions provided by the manufacturer (Illumina). A small aliquot was analyzed on Qubit and Fragment Analyzer prior to sequencing on Illumina HiSeq using the TruSeq SR Cluster Generation Kit v3 and TruSeq SBS Kit v3. Data were processed with the Illumina Pipeline Software v1.82. RNA-seq data were deposited in the Gene Expression Omnibus (GEO) server at the National Center for Biotechnology Information (NCBI).
• All analyses in this study were carried out using the M. tuberculosis H37Rv annotation from the TubercuList database (http://tuberculist.epfl.ch/) (Lew et al., 2011). There are 4019 protein coding sequences (CDS) currently annotated in the genome, 73 genes encoding for stable RNAs, small RNAs and tRNAs. In order to quantify protein occupancy and transcription across the entire genome, 3080 intergenic regions (regions flanked by two non-overlapping CDS) were included, resulting in a total of 7172 features. • The single-ended sequence reads generated from RNA-seq experiments were aligned to the M. tuberculosis H37Rv genome (NCBI accession NC_000962.2) using Bowtie2 with default parameters (Langmead and Salzberg, 2012). Read counts for all annotated features were obtained with the htseq-count program (http://www.huber.embl.de/users/anders/HTSeq/doc/count.html). Regions where genes overlapped were excluded from counting. Reads spanning more than one feature were counted for each feature. Since the RNA library was strand-specific, the orientation of sequence reads had to correspond to the orientation of annotated features to be counted. Analysis of differential gene expression was carried out using the DESeq package (Anders and Huber, 2010).

For assay [9], the system named is mycobacterial outer membrane permeability. Kind of assay: Ethidium bromide (EtBr) uptake assay. The note with it: 10 μM. The class given is cell-based, Mycobacterium tuberculosis. As for the experimental part:
(§1) Bacteria were grown for 24 hours in the presence of test compounds. The BacTiter-Glo microbial cell viability reagent (Promega) was used for the quantification of ATP according to the recommendations of the manufacturer. For EtBr uptake assays, bacteria were washed with PBS containing 0.05% Tween 80, OD600 was adjusted to 0.4 and 100 μl were pipetted into black 96 well plates. EtBr was added (4 μM final concentration) and fluorescence was read every 2 min. at 545/600 nm. Unpaired Student's T-tests were used for statistical analyses.
To investigate whether BBH7 alters mycobacterial outer membrane permeability, which might explain the transcriptomic pattern associated with metal-ion toxicity, the Applicant performed ethidium bromide (EtBr) uptake assays after treatment with the compounds of interest. These assays identify altered outer membrane permeability by an increase of fluorescence after binding of EtBr to bacterial nucleic acids. […] This was not observed with BTP15.

Assay [10] has as its system ATP-levels of Mtb. As to the kind of experiment: Quantification of intracellular ATP levels. The class given is cell-based, Mycobacterium tuberculosis. The note with it: 10 μM, 24 hours. The procedure: as §1
Assay [11] deals with Mtb-infected THP-1 macrophages. The class given is cell-based, human.
Assay [12] deals with THP-1 macrophages. As to the kind of experiment: Survival of Mtb-infected activated THP-1 macrophages. The class given is cell-based, human. The following applies: activated THP-1, higher MOI, 10 μM.
Assay [13] deals with Mtb-GFP inside activated THP-1 cells. The class given is cell-based, Mycobacterium tuberculosis. The following applies: activated THP-1, 10 μM.
Assay [14] deals with ESX-1. Kind of assay: ESX-1 inhibitory activity of inhibitors of mycobacterium virulence (Table VII). The class given is cell-based, Mycobacterium tuberculosis.
Assay [15] relates to GroEL.
Method: In brief, 30 ml of bacteria grown to mid-logarithmic phase (OD600 of 0.6 to 0.7) in Sauton's medium supplemented with 0.05% Tween 80 were centrifuged and resuspended in Sauton's medium without Tween. Compounds were added at concentrations as indicated and cells were grown further at 37° C. with shaking for 4 days. Cultures were harvested by centrifugation to obtain culture filtrates and cell pellets. Culture filtrates were concentrated 100-fold in 5-kDa cutoff Vivaspin columns (Sartorius). Cell lysates were prepared by bead beating bacterial pellets in lysis buffer with 100-μm glass beads.
For immunoblot analysis, 5 μg of protein were resolved by SDS-gel electrophoresis and transferred to nitrocellulose membranes. Membranes were blocked with TBS-buffer (3% milk powder) and incubated overnight with the desired primary antibody diluted in TNT-buffer supplemented with 1% BSA fraction V. Membranes were washed with TNT, incubated with the appropriate secondary antibody in TNT-BSA, washed again with TNT, and developed. GroEL2 was used as a lysis control for culture filtrates and as a loading control for cell lysates.

Where two headings read alike, the source gives them in different places.

`Nc1ncnc2c1ncn2[C@@H]1O[C@H](COP(=O)(O)OP(=O)(O)NP(=O)(O)O)[C@@H](O)[C@H]1O` [AMP-PNP]: the MprB auto-phosphorylation entry in assay [1] (1 mM) is “no effect”. The “phosphohistidine signal of MprB” value in [1] (10 mM) was “only incomplete reduction”. As for `NC(=O)c1c(NC(=O)C2CC2)sc2cc(O)c(Br)cc12` [BTP15, 5 -Bromo-2-(cyclopropanecarbonyl-amino)-6-hydroxy-benzo[b]thiophene-3-carboxylic acid amide], the half-maximal inhibitory concentration (IC50) in [2] turned out to be 1.2 µM. Besides, in assay [3], the “growth inhibition of Mtb” value is listed as “no growth inhibition”. For the same compound, the MIC99 in assay [4] is > 100 µM. For the same compound, the “GFP fluorescence of Mtb in infected fibroblasts” value in assay [5] is listed as “comparable to the untreated control”. The values for the EsxA secretion entry in [6] and in [6] (20 μM) were “dose-dependent secretion inhibition” and “blocked EsxA secretion fully”, respectively. In addition, the results for the Ag85 secretion result in assay [7] (20 μM) and in assay [7] (concentrations ≦10 μM) were “reduced Ag85 secretion” and “only slightly affected at best”, respectively. Moreover, the “significantly downregulated genes (number)” value in [8] (RNA-seq, 5 μM) stood at 18 genes. In assay [8] (RNA-seq, 5 μM, 8 hours), the “differentially regulated genes (number)” value turned out to be 35 genes. Further, the “differential regulation (upregulation) of espA” value in assay [8] (qRT-PCR) is > 2 fold. Also, the “downregulation of DosR/MprAB associated genes” value in assay [8] (qRT-PCR) is reported as > 1.5 fold. For the same compound, the mprA expression result in assay [8] (qRT-PCR, after 24 and 48 hours of drug treatment) was “significantly down-regulated”. Besides, the MprB auto-phosphorylation entry in [1] was “dose-dependent inhibition”. For the same compound, the “EtBr accumulation and fluorescence” value in assay [9] is reported as “not observed”. The “mycobacterial ATP levels” value in assay [10] is “no impact”. Besides, the “rate of bacteria in acidic compartments (Lysotracker Red co-localization)” value in [11] is reported as “significantly higher rate”. In addition, the “protection of THP-1 cells from Mtb-induced cell death” value in assay [12] is “protected THP-1 cells from Mtb-induced cell death”. Moreover, in assay [13], the intracellular bacterial load entry is reported as “greatly reduced the intracellular bacterial load”. Besides, the Activity in assay [14] turned out to be 92%. The “GroEL in the culture filtrate (cell lysis)” value (“GroEL in the culture filtrate” below) in assay [15] (BBH7 and BTP15 treatment) is recorded as “not observed”.

In turn, `CSC(=S)N/N=C(\C)c1ccc(OCc2cccc(Cl)c2)cc1` [D22646] came in with an Activity in assay [14] of 76%. The same measure, in the same setting: for `CSC(=S)N/N=C(\C)c1ccc(OCc2ccc([N+](=O)[O-])cc2)cc1` [D22647] the value was 30%; for `COc1ccc([N+](=O)[O-])cc1COc1ccc(/C(C)=N/NC(=S)SC)cc1` [D22648], 65%. In assay [14], `CSC(=S)N/N=C(\C)c1ccc(OCc2cccc([N+](=O)[O-])c2)cc1` [D22663] returned an Activity of 47%.

The compound `CSC(=S)N/N=C(\C)c1ccc(OCc2cccc(Br)c2)cc1` [D22670] had an Activity in assay [14] of 67%. Turning to `CSC(=S)N/N=C(\C)c1ccc(OCc2ccc(Br)cc2)cc1` [D22671], the Activity in assay [14] is recorded as 51%. Still for that read-out and setting: for `CSC(=S)N/N=C(\C)c1ccc(OCc2cccc(F)c2)cc1` [D22672] the value was 94%; for `C/C(=N\NC(=S)Nc1ccc(F)c(Cl)c1)c1ccc(OCc2ccccc2)cc1` [D23251], 34%.

Compound `C/C(=N\NC(=S)Nc1cccc(Cl)c1Cl)c1ccc(OCc2ccccc2)cc1` [D23579] registered an Activity in [14] of 75%. Turning to `CSc1ccc(NC(=O)Nc2sc3cc(O)ccc3c2C(N)=O)cc1` [D38979], the Activity in assay [14] is 60%.

As to `CC(C)c1ccc(NC(=O)Nc2sc3cc(O)ccc3c2C(N)=O)cc1` [D39317], the Activity in assay [14] was found to be 33%.

On to `NC(=O)c1c(NC(=O)Nc2cccc(C(F)(F)F)c2)sc2cc(O)ccc12` [D39321], for which the Activity in assay [14] is listed as 45%. Same read-out and setting: for `NC(=O)c1c(NC(=O)Nc2cccc(Cl)c2)sc2cc(O)ccc12` [D39322] the value was 40%; for `COc1ccc(CNCC(O)COc2ccc3c(C(N)=O)c(NC(=O)C4CC4)sc3c2)cc1` (stereo not drawn) [D45756], 32%. For the compound `NC(=O)c1c(NC(=O)Nc2ccc(F)c(Cl)c2)sc2c(Cl)c(O)c(Cl)cc12` [D49399], in assay [14], the Activity worked out at 33%. In assay [14], `CC(=O)Oc1c(Cl)cc2c(C(N)=O)c(NC(=O)Nc3ccc(C(C)C)cc3)sc2c1Cl` [D51275] gave an Activity of 41%. On the same count and under the same terms, for `COC(=O)c1cccc(NC(=O)Nc2sc3c(Cl)c(OC(C)=O)c(Cl)cc3c2C(N)=O)c1` [D58298] the value was 33%; for `CC(=O)Oc1c(Cl)cc2c(C(N)=O)c(NC(=O)Nc3cccc(CN(C)C)c3)sc2c1Cl` [D58845], 87%.

In assay [14], `CNC(=O)Nc1sc2c(Cl)c(O)c(Cl)cc2c1C(N)=O` [D60166] had an Activity of 55%. As to `CNC(=O)Nc1sc2c(C(C)C)cc(N)cc2c1C(N)=O` [D63134], the Activity in [14] is 26%. Still for that read-out and setting: for `NC(=O)Nc1sc2cc(O)c(Br)cc2c1C(N)=O` [D70865] the value was 77%.

In the case of `CC(=O)Oc1cc2sc(NC(=O)C3CC3)c(C(N)=O)c2cc1Br` [D70866], the Activity in assay [14] is on record as 80%. As for `CC(=O)Oc1cc2sc(NC(N)=O)c(C(N)=O)c2cc1Br` [D71014], the Activity in [14] is 90%.

On to `NNC(=O)c1ccncc1` [Isoniazid, reference compound], for which the EsxA secretion result in assay [6] (0.5× MIC) is given as “no effect”. Also, the “GroEL in the culture filtrate” value in [15] (5× MIC) is “cell lysis”.

As for `[Cu]` [copper], the EsxA secretion result in assay [6] (elevated concentrations of copper) was “no effect”. As for `CC[C@@H](CO)NCCN[C@@H](CC)CO` [ethambutol, reference compound], the EsxA secretion result in [6] (0.5× MIC) is on record as “no effect”. Further, in assay [15] (5× MIC), the “GroEL in the culture filtrate” value is recorded as “cell lysis”. For `CCc1cc(C(N)=S)ccn1` [ethionamide, reference compound], the EsxA secretion result in [6] is listed as “no effect”. Also, the “GroEL in the culture filtrate” value in [15] (5× MIC) is “cell lysis”. For the compound `CC(=O)Nc1ccc(/C=N/NC(N)=S)cc1` [thiacetazone, reference compound], the EsxA secretion entry in [6] (0.5× MIC) was “no effect”. In assay [15] (5× MIC), the “GroEL in the culture filtrate” value is given as “cell lysis”.

As for `O=S(=O)([O-])[O-].[Zn+2]` [zinc, ZnSO4], the “secretion of EsxA” value in [6] (500 μM zinc) is reported as “sixfold increase”. Moreover, in [7] (media containing elevated levels of ZnSO4), the Ag85 secretion result is “remained unchanged”.
